From patent publication US8298782B2, “Reversible MHC multimer staining for functional purification of antigen-specific T cells” (priority 2000, dated 2012)

Tests used:
[1] = system: LLO91-99-specific T cells; assay: 51Cr-release cytotoxicity assay of multimer-treated CTLs; format: cell-based
Experimental: (§1) FIG. 3: Interference of MHC multimer staining with T cell function in vitro. (a) LLO91-99-specific T cells were stained for 2 hours with binding (LLO91-99/H2-K^d) or non-binding (p60217-225/H2-K^d) streptavidin-PE tetramer (“tet”) reagents at 4° C. or 37° C. MHC tetramer staining (upper), TCR expression (middle, filled black graph hidden behind TCR^high populations), and annexin V binding (lower) are shown in histogram format. (b) Immunofluorescence staining of LLO91-99-specific T cells one hour after incubation with LLO91-99/H2-K^d streptavidin-Alexa546 tetramers (red) at 4° C. or 37° C. (c) LLO91-99-specific T cells stained for 30 min with binding or non-binding tetramer reagents at 4° C., were then washed to remove unbound reagent and transferred to a chromium release assay (effector to target ratio approx. 5:1). LLO91-99 peptide concentration and percent specific lysis are shown on the x- and y-axes, respectively. The bars indicate lysis of MHC mismatched target cells (10^−8 M LLO91-99 peptide and no peptide conditions only) by effector cells treated with non-binding MHC tetramer reagents (filled bars) or binding reagents (open bars). (d) LLO91-99-specific T cells were treated as in (c), transferred into a proliferation assay in the presence of syngeneic irradiated splenocytes, and stimulated in the presence of peptide or various mitogens (x-axis).
FIG. 7: Reversible MHC multimer staining and T cell function. LLO91-99-specific T cells were stained for 30 min with binding LLO91-99/H2-K^d Strep-tag® II peptide/β2m-Strep-tag® II peptide-HSV-tag:Strep-Tactin® polypeptide (IBA GmbH) or non-binding (p60217-225/H2-K^d) multimer reagents and then extensively washed over 4 h in the presence or absence or d-biotin (1 mM, all done at 4° C.) prior to assays or adoptive transfer. (a) Staining for recombinant MHC-molecules (detected by epitope-tag staining, x-axis) on differently treated T cells. […] Numbers of viable bacteria (y-axis) were determined 48 h following Lysteria infection. […]

[2] = system: LLO91-99-specific T cells; assay: MHC tetramer staining, TCR expression, annexin V binding and immunofluorescence of T cells; format: cell-based
Experimental: as §1
LLO91-99 specific T cell lines were expanded in vitro as described before (18). MHC-multimer staining was performed by incubation of approximately 2 μg H2-K^d Strep-tag® II peptide multimer reagent (IBA GmbH) per 1×10^6 cells at 4° C. for 30 min. For epitope-tag staining cells were washed, fixed briefly in 1% paraformaldehyde, and subsequently stained for anti-HSV tag using an unconjugated primary mouse or rat mAb (e.g. TB067, Novagen) and a secondary anti-mouse or anti-rat-PE antibody (e.g. A85-1, PharMingen). Flow cytometry was performed using a FACSCalibur (Becton Dickinson) and FlowJo software. […] Conventional ^51Cr-release and ^3H-thymidine incorporation assays were performed as described before (18).
Phenotypic changes of cell populations have not been reported so far following epitope-specific T cell staining at low temperatures (4° C.). Under these conditions, TCR-MHC mediated signalling events become not activated. MHC multimer staining at higher temperatures (e.g. at room temperature (RT), or at 37° C.) has been performed to improve the intensity and/or stabilty of the fluorescent signal through epitope-specific internalization of the multimer. In order to analyze the impact of differential treatment of T cells on their phenotype, we compared LLO91-99-specific T cell lines following staining with LLO91-99/H2-K^d tetramers at 4° C. or 37° C. As a negative control, MHC tetramers containing different Listeria epitope ([…]) were used; these reagents cannot bind to TCRs of LLO91-99-specific T cells, thus controlling for potential peptide-independent effects.

Listeria monocytogenes = assay: adoptive transfer of multimer-treated T cells, protection against Listeria infection; format: in vivo, BALB/c mice
Excerpt: Six hours later, mice were infected with 2×10^4 Listeria monocytogenes. […] Control mice received NaCl only.
(a) Staining for recombinant MHC-molecules (detected by epitope-tag staining, x-axis) on differently treated T cells. (b) Cytotoxicity (% specific lysis, y-axis) of differently treated T cells in response to LLO91-99 peptide-coated target cells (peptide titration, x-axis) with an effector to target cell ratio of approx. 5:1, compare with FIG. 1c. (c) Proliferation (y-axis) of differently treated T cells stimulated with epitope or various mitogens (indicated on the x-axis) in the presence of syngeneic irradiated splenocytes. Compare with FIG. 1d. (d) Protection against Lysteria monocytogenes infection following adoptive transfer of 4.1×10^6 LLO91-99-specific T cells treated with binding (LLO91-99) or non-binding (p60217-225) MHC multimer reagents (indicated to the left). […] Numbers of viable bacteria (y-axis) were determined 48 h following Lysteria infection. Data are representative of three independent experiments, each with 2 mice per group.
LLO91-99 specific T cells were stained with H2-K^d Strep-tag® II peptide multimer reagents (IBA GmbH) at 4° C. […] Adoptive cell transfer was performed by injection of 1×10^7 cells—per mouse per group—into the tail vein of naive BALB/c mice.

[3] = system: LLO91-99-specific T cells; assay: 3H-thymidine incorporation proliferation assay of multimer-treated T cells; format: cell-based; conditions: reagent remains on the cell surface
Experimental: FIG. 3: Interference of MHC multimer staining with T cell function in vitro. (a) LLO91-99-specific T cells were stained for 2 hours with binding (LLO91-99/H2-K^d) or non-binding (p60217-225/H2-K^d) streptavidin-PE tetramer (“tet”) reagents at 4° C. or 37° C. MHC tetramer staining (upper), TCR expression (middle, filled black graph hidden behind TCR^high populations), and annexin V binding (lower) are shown in histogram format. (b) Immunofluorescence staining of LLO91-99-specific T cells one hour after incubation with LLO91-99/H2-K^d streptavidin-Alexa546 tetramers (red) at 4° C. or 37° C. (c) LLO91-99-specific T cells stained for 30 min with binding or non-binding tetramer reagents at 4° C., were then washed to remove unbound reagent and transferred to a chromium release assay (effector to target ratio approx. 5:1). LLO91-99 peptide concentration and percent specific lysis are shown on the x- and y-axes, respectively. […]
FIG. 7: Reversible MHC multimer staining and T cell function. […] (a) Staining for recombinant MHC-molecules (detected by epitope-tag staining, x-axis) on differently treated T cells. […] Numbers of viable bacteria (y-axis) were determined 48 h following Lysteria infection. […]

[4] = target: T1, Strep-Tactin® polypeptide (mutated streptavidin) (Streptomyces avidinii, UniProt P22629, E68V/S69T/V71R); conditions: read-out: Kd of Strep-tag II peptide with Strep-Tactin; cited from earlier work
T1 construct: literature IBA GmbH
T1 sequence (P22629 38-163 E68V/S69T/V71R): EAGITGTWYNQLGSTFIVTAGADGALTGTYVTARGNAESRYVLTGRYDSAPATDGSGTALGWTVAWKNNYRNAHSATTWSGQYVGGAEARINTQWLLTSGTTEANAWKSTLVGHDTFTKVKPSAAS

Substance	lysis in the absence of peptide (spontaneous/bystander lysis) ([1]; reagent not dissociated)	maximum % specific lysis ([1]; stained CTLs washed, then 37° C., constant effector to target ratio)	peptide sensitivity of cytotoxicity ([1]; various concentrations of LLO91-99 peptide)	MHC tetramer staining ([2]; 2 h incubation at 4° C.)	MHC tetramer staining ([2]; 2 h incubation at 37° C.)	annexin V binding (early marker of apoptosis) ([2]; after staining at 37° C.)	surface TCR expression ([2]; after staining at 37° C.)	immunofluorescence microscopy staining pattern ([2]; incubation at 4° C.)	immunofluorescence microscopy staining pattern ([2]; incubation at 37° C.)	protection against Listeria infection following adoptive transfer (Listeria monocytogenes; 4.1×10^6 cells, reagent not dissociated)	LLO91-99-specific T cells recovered from recipient mice after transfer (Listeria monocytogenes; compared to control cells)	protection against Listeria infection (viable bacteria in spleen 48 h) (Listeria monocytogenes; transfer of 1×10^6 treated CTLs)	protection against Listeria infection (viable bacteria in spleen 48 h) (Listeria monocytogenes; transfer of 1×10^7 treated CTLs, listed as LLO91-99/H2-K^d tetramer reagents)	protection against Listeria infection (viable bacteria in spleen 48 h) (Listeria monocytogenes; transfer of 1×10^7 treated CTLs, listed as binding MHC tetramers)	proliferation in response to antigen or mitogenic stimulation [3]	Kd [4] [µM]
LLO91-99/H2-K^d tetramers: conventional tetramers of H2-K^d/LLO91-99 complexes with PE- or Alexa546-conjugated streptavidin	increased lysis in the absence of LLO91-99 peptide addition	reduction in maximum % specific lysis	decreased peptide sensitivity	high intensity staining	reduced and more diffuse staining pattern	increased binding of annexin V	substantial downregulation of surface TCR	typical surface-staining pattern	most multimers are internalized	significantly reduced protection	much lower numbers	indistinguishable from untreated mice	dramatic loss of protective capacity	still confer some significant Listeria-specific protection	poorly proliferate	–
WSHPQFEK [Strep-tag® II peptide]	–	–	–	–	–	–	–	–	–	–	–	–	–	–	–	~1
